Laboratory results published in patent US20250161306A1, “UBIQUITIN-SPECIFIC-PROCESSING PROTEASE 1 (USP1) INHIBITORS FOR THE TREATMENT OF SOLID TUMORS” (KSQ Therapeutics, Inc., priority 2022, published 2025).

How the values were obtained:
[1] = Mouse pharmacokinetic study, single oral dose, plasma by LC-MS/MS; type: in vivo, female NOD/SCID mice; conditions: for AUClast / Cmax / T1/2 / Tmax: 300 mg/kg single oral dose, plasma, 300 mg/kg
Procedure: Mouse pharmacokinetic (PK) studies were conducted using Crystalline Form A of 6-(4-cyclopropyl-6-methoxypyrimidin-5-yl)-1-(4-(1-isopropyl-4-(trifluoromethyl)-1H-imidazol-2-yl)benzyl)-1H-pyrazolo[3,4-d]pyrimidine, as disclosed herein and Crystalline Form 2 of a gentisic acid co-crystal of 6-(4-cyclopropyl-6-methoxypyrimidin-5-yl)-1-(4-(1-isopropyl-4-(trifluoromethyl)-1H-imidazol-2-yl)benzyl)-1H-pyrazolo[3,4-d]pyrimidine, as disclosed herein.
The PK studies consisted of single dose oral exposure studies, which were conducted in female NOD/SCID mice (approximately 6 to 8 weeks, and 20-30 g at the time of study) using a compound dose of 300 mg/kg and a dosing volume of 10 mL/kg. The mice were fasted overnight prior to dosing. Animals had free access to food and water post-dosing.
Blood was sampled serially from the dorsal metatarsal vein at pre-dose, 0.25, 0.5, 1, 2, 4, 8, 24, 48 (crystalline Form 2 only), and 72 hours (crystalline Form 2 only) post PO dosing. Approximately 0.03 mL blood was collected at each time point and centrifuged at 4000 G for 5 minutes at 4° C. to provide plasma. The plasma samples were then stored in a freezer at −75±15° C. prior to LC-MS/MS analysis.
Concentrations of each compound in the plasma samples were then analyzed using an LC-MS/MS method. WinNonlin (Phoenix™, version 6.1) or other similar software was used for PK calculations. The following PK parameters were calculated, whenever possible from the plasma concentration versus time data: Cmax, Tmax, T1/2, AUCinf, and AUClast. The PK data were described using descriptive statistics such as mean with standard deviation.

[2] = Distribution in mouse brain and plasma after repeated oral dosing; type: in vivo, female NOD SCID mice; conditions: 100 or 300 mg/kg oral for 28 days
Procedure: Female NOD SCID mice of an age between 6-8 weeks and a body weight range of 18-22 g were purchased from Beijing Anikeeper Biotech Co, Ltd. Animals were habituated to the environment for at least 7 days prior to study initiation. Mice were dosed with Crystalline Form 2 at either 100 mg/kg or 300 mg/kg dose levels via oral gavage for 28 days. After 24 hours following 27 doses of compound, three mice were euthanized via CO2. After four hours following 28 doses of compound, three mice were euthanized via CO2. At each time point the whole brain was collected. In addition, approximately 0.03 mL of blood was collected at each time point and centrifuged at 4000G for 5 minutes at 4° C. to provide plasma. Samples were then stored in a freezer at −75±15° C. prior to LC-MS/MS analysis. Concentrations of compound in brain homogenates (ng/g) and plasma (ng/ml) were then analyzed using an LC-MS/MS method. The PK data were described using descriptive statistics such as mean with standard deviation.

[3] = Distribution in rat brain and plasma after single oral dose; type: in vivo, Sprague Dawley rats; conditions: 100 mg/kg single oral dose; for AUC0-∞: brain
Procedure: Male and female Sprague Dawley rats were purchased from Beijing Anikeeper Biotech Co, Ltd. Animals were habituated to the environment prior to study initiation. Rats were dosed with single dose of 100 mg/kg crystalline Form 2 via oral gavage. The rats were fasted overnight prior to dosing. Animals had access to food from 2 hours post dose and free access to water throughout the study. Approximately 0.2 mL of blood was sampled via jugular vein at each time point and centrifuged at 4000G for 5 minutes at 4° C. to provide plasma. Samples were then stored in a freezer at −75±15° C. prior to LC-MS/MS analysis. Whole brain was collected after hemoperfusion and snap frozen on dry ice prior to storage at −75±15° C. Prior to LC-MS/MS analysis whole brains were weighed and homogenized with water by tissue weight (g) to water volume (ml) ratio 1:3 before analysis. Actual concentration is the measured value multiplied by the dilution factor. The PK data were described using descriptive statistics such as mean with standard deviation.

Structure (SMILES) | AUClast ([1]; Mean) | Cmax ([1]; Mean) | T1/2 ([1]; Mean) | Tmax ([1]; Mean) | AUClast ([1]; Mouse 7) | Cmax ([1]; Mouse 7) | AUClast ([1]; Mouse 8) | Cmax ([1]; Mouse 8) | Tmax ([1]; Mouse 8) | AUClast ([1]; Mouse 9) | Cmax ([1]; Mouse 9) | T1/2 ([1]; Mouse 9) | Tmax ([1]; Mouse 9) | accumulation of the drug in the brain after repeated dosing [2] | drug level in the brain tissue [2] | drug level in the brain tissue ([3]; male and female rats) | AUC0-∞ ([3]; Female rats) | AUC0-∞ ([3]; Male rats) | T1/2 ([1]; Mouse 8) | mouse oral exposure levels compared to crystalline Form A (freebase) ([1]; about 300 mg/kg)
COc1ncnc(C2CC2)c1-c1ncc2cnn(Cc3ccc(-c4nc(C(F)(F)F)cn4C(C)C)cc3)c2n1 [Crystalline Form A, 6-(4-cyclopropyl-6-methoxypyrimidin-5-yl)-1-(4-(1-isopropyl-4-(trifluoromethyl)-1H-imidazol-2-yl)benzyl)-1H-pyrazolo[3,4-d]pyrimidine] | 60.663 µg·h/mL | 3697 ng/mL | 12.7 h | 5.33 h | 72.653 µg·h/mL | 4450 ng/mL | 40.678 µg·h/mL | 2890 ng/mL | 4.00 h | 68.658 µg·h/mL | 3750 ng/mL | 18.6 h | 4.00 h |  |  |  |  |  |  | 
COc1ncnc(C2CC2)c1-c1ncc2cnn(Cc3ccc(-c4nc(C(F)(F)F)cn4C(C)C)cc3)c2n1 [Crystalline Form 2, 6-(4-cyclopropyl-6-methoxypyrimidin-5-yl)-1-(4-(1-isopropyl-4-(trifluoromethyl)-1H-imidazol-2-yl)benzyl)-1H-pyrazolo[3,4-d]pyrimidine] | 752.45 µg·h/mL | 28900 ng/mL | 4.17 h | 10.7 h | 827.348 µg·h/mL | 28800 ng/mL | 835.713 µg·h/mL | 28900 ng/mL | 12.0 h | 594.288 µg·h/mL | 29000 ng/mL | 4.27 h | 12.0 h | no apparent accumulation | measurable drug level | measurable drug level | 120933 ng·h/g | 60596 ng·h/g | 4.22 h | higher exposure levels
